In patent US12503452B2 (Curza Global, LLC, priority 2019, dated 2025):
Where a name gives a salt, the structure may show the parent alone. Read-outs that look alike come from different tables or passages of the source.

Key:
[1] = test system: E. coli S30 extract (bacterial protein synthesis); assay: E. coli S30 extract coupled transcription-translation luciferase assay (inhibition of bacterial protein synthesis); assay type: biochemical; conditions: class by IC50 or % inhibition @ 1 μM, read-out: S30 IC50 (μM/% inhib.)
Method in brief: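 Cell-free coupled transcription-translation in E. coli S30 circular-DNA extract, with pBESTluc plasmid as template and complete amino acid mix. Eight 2-fold compound dilutions were incubated with the extract 1 h at 37 °C, chilled, then luciferase luminescence was read. % inhibition was taken relative to no-inhibitor wells; no-DNA wells gave background.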

[2] = biological target: Rabbit Reticulocyte Lysate (eukaryotic protein synthesis); assay: Rabbit reticulocyte lysate luciferase assay (inhibition of eukaryotic protein synthesis); assay type: biochemical; conditions: class by IC50 or % inhibition @ 1 μM, read-out: Rabbit reticulocyte IC50 (μM/% inhib.)
Method in brief: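 Nuclease-treated rabbit reticulocyte lysate translating luciferase control RNA, with complete amino acids, was incubated at 30° C. for 90 minutes with 2-fold serial compound dilutions. Luminescence was measured after adding luciferase reagent. % inhibition was relative to water controls, with no-RNA wells as background.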

A. baumannii (Ab) = assay: Broth microdilution minimum inhibitory concentration (MIC); assay type: cell-based; conditions: Acinetobacter baumannii, read-out: Ab + bicarb MIC
Method in brief: (§1)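 Following CLSI M07-A9 with minor changes, growth medium was cation-adjusted Mueller-Hinton broth, alone or supplemented with bicarbonate (6.25 or 25 mM) or heat-inactivated human serum up to 50%. Each compound was tested over eight two-fold dilutions against 5×10^4 CFU per well.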

E. coli (Ec) = assay: as above; assay type: cell-based; conditions: Escherichia coli, read-out: E. coli + bicarb MIC
Method in brief: as §1

E. faecalis (Ef) = assay: as above; assay type: cell-based; conditions: Enterococcus faecalis, read-out: Ef + bicarb MIC
Method in brief: as §1

P. aeruginosa (Pa) = assay: as above; assay type: cell-based; conditions: Pseudomonas aeruginosa, read-out: Pa MIC + bicarb
Method in brief: as §1

S. aureus (Sa) = assay: as above; assay type: cell-based; conditions: Staphylococcus aureus, read-out: Sa + bicarb MIC
Method in brief: as §1

[3] = A. baumannii, growth medium with sodium bicarbonate
[4] = E. coli, growth medium with sodium bicarbonate
[5] = E. faecalis, growth medium with sodium bicarbonate
[6] = P. aeruginosa, growth medium with sodium bicarbonate
[7] = S. aureus, growth medium with sodium bicarbonate
[8] = A. baumannii, growth medium supplemented with sodium bicarbonate
[9] = E. coli, growth medium supplemented with sodium bicarbonate
[10] = E. faecalis, growth medium supplemented with sodium bicarbonate
[11] = P. aeruginosa, growth medium supplemented with sodium bicarbonate
[12] = S. aureus, growth medium supplemented with sodium bicarbonate

Structure (SMILES)	IC50 [1]	IC50 [2]	MIC (A. baumannii (Ab); [3])	MIC (E. coli (Ec); [4])	MIC (E. faecalis (Ef); [5])	MIC (P. aeruginosa (Pa); [6])	MIC (S. aureus (Sa); [7])	MIC (A. baumannii (Ab))	MIC (E. coli (Ec))	MIC (E. faecalis (Ef))	MIC (P. aeruginosa (Pa))	MIC (S. aureus (Sa))	MIC (A. baumannii (Ab); [8])	MIC (E. coli (Ec); [9])	MIC (E. faecalis (Ef); [10])	MIC (P. aeruginosa (Pa); [11])	MIC (S. aureus (Sa); [12])
CCN(Cc1ccc(-n2ccc(NC(=O)N3CCN(C(=O)C(C)(C)N)CC3)nc2=O)cc1C(F)(F)F)C1CCC(N)CC1 (stereo not shown) [Compound 276]	0.5 to 1 µM	> 1 µM	> 32 µg/mL	< 8 µg/mL	< 8 µg/mL	> 32 µg/mL	< 8 µg/mL	–	–	–	–	–	–	–	–	–	–
CC(C)(N)C(=O)N1CCN(C(=O)Nc2ccn(-c3ccc(CNC4CCC[C@@H](N)C4)cc3)c(=O)n2)CC1 (mixture of isomers) [Compound 320, hydrochloride salt]	< 0.5 µM	> 1 µM	–	–	–	–	–	> 32 µg/mL	< 8 µg/mL	> 32 µg/mL	> 32 µg/mL	8 to 32 µg/mL	–	–	–	–	–
CC(CN1CC(N)C1)Oc1ccc(-n2ccc(NC(=O)N3CCN(C(=O)C(C)(C)N)CC3)nc2=O)cc1 (stereo not shown) [Compound 182]	> 1 µM	> 1 µM	> 32 µg/mL	8 to 32 µg/mL	> 32 µg/mL	> 32 µg/mL	> 32 µg/mL	–	–	–	–	–	–	–	–	–	–
CCN(Cc1ccc(-n2ccc(NC(=O)N3CCN(C(=O)C(C)(C)N)CC3)nc2=O)cc1)[C@H]1CC[C@@H](N)CC1 [Compound 122]	< 0.5 µM	> 1 µM	–	–	–	–	–	–	–	–	–	–	> 32 µg/mL	< 8 µg/mL	< 8 µg/mL	> 32 µg/mL	< 8 µg/mL
CC(C)(N)C(=O)N1CCN(C(=O)Nc2ccn(-c3ccc(CN[C@H]4CC[C@@H](N)CC4)cc3)c(=O)n2)CC1 [Compound 120]	< 0.5 µM	> 1 µM	–	–	–	–	–	–	–	–	–	–	> 32 µg/mL	< 8 µg/mL	8 to 32 µg/mL	> 32 µg/mL	< 8 µg/mL
C[C@@H]1CN(C(=O)Nc2ccn(-c3ccc(CN4CCC(N)CC4)cc3)c(=O)n2)CCN1C(=O)C(C)(C)N [Compound 79]	< 0.5 µM	> 1 µM	–	–	–	–	–	–	–	–	–	–	> 32 µg/mL	< 8 µg/mL	8 to 32 µg/mL	> 32 µg/mL	< 8 µg/mL
CC1C[C@@H](NCc2ccc(-n3ccc(NC(=O)N4CCN(C(=O)C(C)(C)N)CC4)nc3=O)cc2)CC[C@@H]1N (stereo partly shown) [Compound 335, hydrochloride salt]	< 0.5 µM	> 1 µM	–	–	–	–	–	> 32 µg/mL	< 8 µg/mL	> 32 µg/mL	> 32 µg/mL	< 8 µg/mL	–	–	–	–	–
CC(C)(N)C(=O)N1CCN(C(=O)Nc2ccn(-c3ccc(CCN[C@@H]4CC[C@H](N)C4)cc3)c(=O)n2)CC1 [Compound 181]	< 0.5 µM	> 1 µM	> 32 µg/mL	< 8 µg/mL	8 to 32 µg/mL	> 32 µg/mL	< 8 µg/mL	–	–	–	–	–	–	–	–	–	–
CC(C)(N)C(=O)N1CCN(C(=O)Nc2ccn(-c3ccc(OCCN4CCCC(CN)C4)cc3)c(=O)n2)CC1 (stereo not shown) [Compound 188]	< 0.5 µM	> 1 µM	> 32 µg/mL	< 8 µg/mL	< 8 µg/mL	> 32 µg/mL	< 8 µg/mL	–	–	–	–	–	–	–	–	–	–
CC(Cc1ccc(-n2ccc(NC(=O)N3CCN(C(=O)C(C)(C)N)CC3)nc2=O)cc1)N(C)C[C@H]1C[C@H](N)C1 (stereo partly shown) [Compound 157]	< 0.5 µM	> 1 µM	–	–	–	–	–	–	–	–	–	–	> 32 µg/mL	< 8 µg/mL	< 8 µg/mL	> 32 µg/mL	< 8 µg/mL
CC(Cc1ccc(-n2ccc(NC(=O)N3CCN(C(=O)C(C)(C)N)CC3)nc2=O)cc1)NC[C@H]1C[C@@H](N)C1 (stereo partly shown) [Compound 159]	< 0.5 µM	> 1 µM	–	–	–	–	–	–	–	–	–	–	> 32 µg/mL	< 8 µg/mL	8 to 32 µg/mL	> 32 µg/mL	< 8 µg/mL
CC(C)(N)C(=O)N1CCN(C(=O)Nc2ccn(-c3ccc(CN[C@H]4CC[C@H](N)CC4)c(OC(F)(F)F)c3)c(=O)n2)CC1 [Compound 332, hydrochloride salt]	< 0.5 µM	> 1 µM	–	–	–	–	–	> 32 µg/mL	< 8 µg/mL	8 to 32 µg/mL	> 32 µg/mL	8 to 32 µg/mL	–	–	–	–	–
C[C@@H]1CCN(CCc2ccc(-n3ccc(NC(=O)N4CCN(C(=O)[C@](C)(N)CO)CC4)nc3=O)cc2)CC[C@H]1N (stereo in doubt) [Compound 28]	< 0.5 µM	> 1 µM	–	–	–	–	–	–	–	–	–	–	> 32 µg/mL	< 8 µg/mL	< 8 µg/mL	> 32 µg/mL	< 8 µg/mL
